Measurements from PMC5218480 (PLoS ONE, 2017).

Test system: MV-4-11 cells
Experiment: Gene expression microarray analysis (Affymetrix PrimeView) and GSEA
Format: cell-based, human
Parameters: RFU PODN (11730768_x_at) / Fold change /veh PODN (11730768_x_at) / RFU LINC00158 (11744669_a_at) / Fold change /veh LINC00158 (11744669_a_at) / RFU DUSP10 (11751237_a_at) / Fold change /veh DUSP10 (11751237_a_at) / RFU ID3 (11757404_x_at) / Fold change /veh ID3 (11757404_x_at) / RFU PLEKHG5 (11737974_s_at) / Fold change /veh PLEKHG5 (11737974_s_at) / RFU LRRC4B (11730491_at) / Fold change /veh LRRC4B (11730491_at) / RFU GIMAP4 (11747438_a_at) / Fold change /veh GIMAP4 (11747438_a_at) / RFU KRT8 (11758183_x_at) / Fold change /veh KRT8 (11758183_x_at) / RFU CNN1 (11734310_a_at) / Fold change /veh CNN1 (11734310_a_at) / RFU VPS37D (11726825_at) / Fold change /veh VPS37D (11726825_at) / RFU C10orf10 (11716522_x_at) / Fold change /veh C10orf10 (11716522_x_at) / RFU KIR2DL2 /// KIR2DL4 /// KIR2DL5A /// KIR2DL5B /// KIR2DS1 /// KIR2DS2 /// KIR2DS3 /// KIR2DS4 /// KIR3DL3 /// KIR3DL3 /// KIR3DS1 (11738374_at) / Fold change /veh KIR2DL2 /// KIR2DL4 /// KIR2DL5A /// KIR2DL5B /// KIR2DS1 /// KIR2DS2 /// KIR2DS3 /// KIR2DS4 /// KIR3DL3 /// KIR3DL3 /// KIR3DS1 (11738374_at) / RFU C1QL1 (11718748_at) / Fold change /veh C1QL1 (11718748_at) / RFU TMPRSS4 (11747572_a_at) / Fold change /veh TMPRSS4 (11747572_a_at) / RFU HAMP (11756126_x_at) / Fold change /veh HAMP (11756126_x_at) / RFU RNFT2 (11725882_a_at) / Fold change /veh RNFT2 (11725882_a_at) / RFU NR4A2 (11747474_a_at) / Fold change /veh NR4A2 (11747474_a_at) / RFU ABCC12 (11746883_a_at) / Fold change /veh ABCC12 (11746883_a_at) / RFU TMEM136 (11760407_x_at) / Fold change /veh TMEM136 (11760407_x_at) / RFU CLDN22 /// WWC2 (11732394_at) / Fold change /veh CLDN22 /// WWC2 (11732394_at) / RFU HLA-DPB1 (11760878_x_at) / Fold change /veh HLA-DPB1 (11760878_x_at) / RFU SPINT1 (11716480_a_at) / Fold change /veh SPINT1 (11716480_a_at) / RFU GAP43 (11754022_s_at) / Fold change /veh GAP43 (11754022_s_at) / RFU A4GNT (11735810_at) / Fold change /veh A4GNT (11735810_at) / RFU PRB3 (11715151_x_at) / Fold change /veh PRB3 (11715151_x_at) / RFU TUBB4B (11761932_at) / Fold change /veh TUBB4B (11761932_at) / RFU CAPN14 (11732068_a_at) / Fold change /veh CAPN14 (11732068_a_at) / RFU TMCC2 (11721928_a_at) / Fold change /veh TMCC2 (11721928_a_at) / RFU IRGQ (11745062_a_at) / Fold change /veh IRGQ (11745062_a_at) / RFU FAM174B (11720279_a_at) / Fold change /veh FAM174B (11720279_a_at) / RFU TMPRSS4 (11748680_a_at) / Fold change /veh TMPRSS4 (11748680_a_at) / RFU FAM212B (11763350_a_at) / Fold change /veh FAM212B (11763350_a_at) / RFU PLEKHG5 (11743358_a_at) / Fold change /veh PLEKHG5 (11743358_a_at) / RFU ZSCAN30 (11745921_a_at) / Fold change /veh ZSCAN30 (11745921_a_at) / RFU CMKLR1 (11741424_a_at) / Fold change /veh CMKLR1 (11741424_a_at) / RFU LOC101060620 /// MAPK8IP1 (11723275_at) / Fold change /veh LOC101060620 /// MAPK8IP1 (11723275_at) / RFU SPTSSB (11747773_x_at) / Fold change /veh SPTSSB (11747773_x_at) / RFU PRSS12 (11739890_at) / Fold change /veh PRSS12 (11739890_at) / RFU BIN1 (11741810_x_at) / Fold change /veh BIN1 (11741810_x_at) / RFU WNT11 (11732464_a_at) / Fold change /veh WNT11 (11732464_a_at) / RFU C10orf10 (11716521_a_at) / Fold change /veh C10orf10 (11716521_a_at) / RFU C5orf56 (11738089_at) / Fold change /veh C5orf56 (11738089_at) / RFU CYB561 (11721691_x_at) / Fold change /veh CYB561 (11721691_x_at) / RFU ANKRD19P (11752326_a_at) / Fold change /veh ANKRD19P (11752326_a_at) / RFU OR2T12 /// OR2T33 /// OR2T8 (11738714_s_at) / Fold change /veh OR2T12 /// OR2T33 /// OR2T8 (11738714_s_at) / RFU VCAN (11748164_a_at) / Fold change /veh VCAN (11748164_a_at) / RFU JSRP1 (11732532_at) / Fold change /veh JSRP1 (11732532_at) / RFU KRTAP10-11 (11738290_x_at) / Fold change /veh KRTAP10-11 (11738290_x_at) / RFU MYO3A (11730013_a_at) / Fold change /veh MYO3A (11730013_a_at) / RFU EBF3 (11725865_a_at) / Fold change /veh EBF3 (11725865_a_at) / RFU CAMK2N1 (11719241_x_at) / Fold change /veh CAMK2N1 (11719241_x_at) / RFU C5orf56 (11738088_a_at) / Fold change /veh C5orf56 (11738088_a_at) / RFU OLFML3 (11715873_a_at) / Fold change /veh OLFML3 (11715873_a_at) / RFU LOC100653217 /// NTM (11731650_a_at) / Fold change /veh LOC100653217 /// NTM (11731650_a_at) / RFU MAPK11 (11762145_a_at) / Fold change /veh MAPK11 (11762145_a_at) / RFU FIZ1 (11724087_x_at) / Fold change /veh FIZ1 (11724087_x_at) / RFU OASL (11726364_x_at) / Fold change /veh OASL (11726364_x_at) / RFU SOX15 (11748057_x_at) / Fold change /veh SOX15 (11748057_x_at) / RFU CD79A (11719716_a_at) / Fold change /veh CD79A (11719716_a_at) / RFU HIST1H1D (11736915_at) / Fold change /veh HIST1H1D (11736915_at) / RFU CASKIN2 (11723855_a_at) / Fold change /veh CASKIN2 (11723855_a_at) / RFU LOC730098 (11760151_x_at) / Fold change /veh LOC730098 (11760151_x_at) / RFU OR4N2 (11742367_at) / Fold change /veh OR4N2 (11742367_at) / RFU PRRT2 (11749266_a_at) / Fold change /veh PRRT2 (11749266_a_at) / RFU SNX32 (11753110_a_at) / Fold change /veh SNX32 (11753110_a_at) / RFU CDHR5 (11726645_a_at) / Fold change /veh CDHR5 (11726645_a_at) / RFU RCAN1 (11760418_a_at) / Fold change /veh RCAN1 (11760418_a_at) / RFU FAM167A (11723789_a_at) / Fold change /veh FAM167A (11723789_a_at) / RFU FAM26E (11764081_at) / Fold change /veh FAM26E (11764081_at) / RFU ISYNA1 (11749810_s_at) / Fold change /veh ISYNA1 (11749810_s_at) / RFU ACY1 (11761880_at) / Fold change /veh ACY1 (11761880_at) / RFU 11764098_at / Fold change /veh 11764098_at / RFU SAMD14 (11745864_x_at) / Fold change /veh SAMD14 (11745864_x_at) / RFU NPB (11741838_a_at) / Fold change /veh NPB (11741838_a_at) / RFU TMPRSS6 (11731388_a_at) / Fold change /veh TMPRSS6 (11731388_a_at) / RFU KRTAP10-2 (11738614_at) / Fold change /veh KRTAP10-2 (11738614_at) / RFU ARHGAP8 /// PRR5-ARHGAP8 (11727945_x_at) / Fold change /veh ARHGAP8 /// PRR5-ARHGAP8 (11727945_x_at) / RFU KRTAP5-7 /// NADSYN1 (11734609_at) / Fold change /veh KRTAP5-7 /// NADSYN1 (11734609_at) / RFU RASL12 (11751679_a_at) / Fold change /veh RASL12 (11751679_a_at) / RFU CDKN2B (11736163_a_at) / Fold change /veh CDKN2B (11736163_a_at) / RFU PRF1 (11729649_at) / Fold change /veh PRF1 (11729649_at) / RFU, ZNF638 /// ZNF638-IT1 / Fold change vs veh, ZNF638 /// ZNF638-IT1 / RFU, PANK3 / Fold change vs veh, PANK3 / RFU, SH3YL1 / Fold change vs veh, SH3YL1 / RFU, ZEB2 / Fold change vs veh, ZEB2 / RFU, NRIP1 / Fold change vs veh, NRIP1 / RFU, PTTG1IP / Fold change vs veh, PTTG1IP / RFU, CAPN2 / Fold change vs veh, CAPN2 / RFU, MED14 / Fold change vs veh, MED14 / RFU, SNORA58 / Fold change vs veh, SNORA58 / RFU, C1orf63 / Fold change vs veh, C1orf63 / RFU, LRRFIP1 / Fold change vs veh, LRRFIP1 / RFU, NDUFAF7 / Fold change vs veh, NDUFAF7 / RFU, SLC12A2 / Fold change vs veh, SLC12A2 / RFU, IBTK / Fold change vs veh, IBTK / RFU, ESF1 / Fold change vs veh, ESF1 / Fold change vs veh, TMEM50B / RFU, TAOK1 / Fold change vs veh, TAOK1 / RFU, ACBD3 / Fold change vs veh, ACBD3 / RFU, TMA16 / Fold change vs veh, TMA16 / RFU, RWDD3 / Fold change vs veh, RWDD3 / RFU, BCAT1 / Fold change vs veh, BCAT1 / RFU, EDEM3 / Fold change vs veh, EDEM3 / RFU, TMEM33 / Fold change vs veh, TMEM33 / RFU, WDR75 / Fold change vs veh, WDR75 / RFU, AHCTF1 / Fold change vs veh, AHCTF1 / RFU, TFRC / Fold change vs veh, TFRC / RFU, ZDHHC17 / Fold change vs veh, ZDHHC17 / RFU, NOM1 / Fold change vs veh, NOM1 / RFU, ARL8B / Fold change vs veh, ARL8B / RFU, ZBTB11 / Fold change vs veh, ZBTB11 / RFU, TAMM41 / Fold change vs veh, TAMM41 / RFU, KIAA1704 /// LOC100996395 / Fold change vs veh, KIAA1704 /// LOC100996395 / RFU, ING1 / Fold change vs veh, ING1 / RFU, TRMT61B / Fold change vs veh, TRMT61B / RFU, FUBP3 / Fold change vs veh, FUBP3 / RFU, TP53 / Fold change vs veh, TP53 / RFU, TNKS2 / Fold change vs veh, TNKS2 / RFU, ZFP14 / Fold change vs veh, ZFP14 / RFU, ACTR2 / Fold change vs veh, ACTR2 / RFU, PPP3R1 / Fold change vs veh, PPP3R1 / RFU, PIK3R1 / Fold change vs veh, PIK3R1 / RFU, HNRNPA1 / Fold change vs veh, HNRNPA1 / RFU, RNF170 / Fold change vs veh, RNF170 / RFU, ZNF28 / Fold change vs veh, ZNF28 / RFU, RNGTT / Fold change vs veh, RNGTT / RFU, OGT / Fold change vs veh, OGT / RFU, BRD1 / Fold change vs veh, BRD1 / RFU, MARS / Fold change vs veh, MARS / RFU, ZNF655 / Fold change vs veh, ZNF655 / RFU, FAHD1 / Fold change vs veh, FAHD1 / RFU, BDP1 / Fold change vs veh, BDP1 / RFU, LRRCC1 / Fold change vs veh, LRRCC1 / RFU, ARID1A / Fold change vs veh, ARID1A / RFU, ZNF146 / Fold change vs veh, ZNF146 / RFU, ZNF330 / Fold change vs veh, ZNF330 / RFU, GPN3 / Fold change vs veh, GPN3 / RFU, C9orf123 / Fold change vs veh, C9orf123 / RFU, N4BP2L2 / Fold change vs veh, N4BP2L2 / RFU, ARFIP1 / Fold change vs veh, ARFIP1 / RFU, FAM179B / Fold change vs veh, FAM179B / RFU, BCL10 / Fold change vs veh, BCL10 / RFU, UHRF1BP1L / Fold change vs veh, UHRF1BP1L / RFU, BET1 / Fold change vs veh, BET1 / RFU, CNOT2 / Fold change vs veh, CNOT2 / RFU, ZNF268 / Fold change vs veh, ZNF268 / Fold change vs veh, ZNF507 / RFU, DGCR2 / Fold change vs veh, DGCR2 / RFU, WDSUB1 / Fold change vs veh, WDSUB1 / Fold change vs veh, HSP90B1 /// MIR3652 / RFU, ADSS / Fold change vs veh, ADSS / RFU, GK / Fold change vs veh, GK / RFU, ZNF148 / Fold change vs veh, ZNF148 / RFU, TAF9 / Fold change vs veh, TAF9 / RFU, SLC1A5 / Fold change vs veh, SLC1A5 / RFU, SLMO2 / Fold change vs veh, SLMO2 / RFU, ABCC4 / Fold change vs veh, ABCC4 / RFU, LOC101060439 /// RAP1B / Fold change vs veh, LOC101060439 /// RAP1B / RFU, RFX7 / Fold change vs veh, RFX7 / RFU, GTPBP10 / Fold change vs veh, GTPBP10 / RFU, CNEP1R1 / Fold change vs veh, CNEP1R1 / RFU, BIVM-ERCC5 /// ERCC5 / Fold change vs veh, BIVM-ERCC5 /// ERCC5 / RFU, ILF3 / Fold change vs veh, ILF3 / RFU 11762660_at / Fold change /veh 11762660_at / RFU VCAN (11757783_s_at) / Fold change /veh VCAN (11757783_s_at) / RFU DDX43 (11728927_at) / Fold change /veh DDX43 (11728927_at) / RFU KRT8 (11758188_x_at) / Fold change /veh KRT8 (11758188_x_at) / RFU NKD1 (11759106_at) / Fold change /veh NKD1 (11759106_at) / RFU SRD5A1 (11742802_a_at) / Fold change /veh SRD5A1 (11742802_a_at) / RFU TPSAB1 /// TPSB2 (11721975_s_at) / Fold change /veh TPSAB1 /// TPSB2 (11721975_s_at) / RFU GSTM3 (11746129_a_at) / Fold change /veh GSTM3 (11746129_a_at) / RFU IL23R (11737362_x_at) / Fold change /veh IL23R (11737362_x_at) / RFU TMEM51 (11727254_a_at) / Fold change /veh TMEM51 (11727254_a_at) / RFU PIWIL2 (11732686_x_at) / Fold change /veh PIWIL2 (11732686_x_at) / RFU ORM1 (11744905_x_at) / Fold change /veh ORM1 (11744905_x_at) / RFU CCDC152 (11743942_at) / Fold change /veh CCDC152 (11743942_at) / RFU ECM1 (11717891_a_at) / Fold change /veh ECM1 (11717891_a_at) / RFU IL23R (11748794_a_at) / Fold change /veh IL23R (11748794_a_at) / RFU TNFAIP8L3 (11732012_x_at) / Fold change /veh TNFAIP8L3 (11732012_x_at) / RFU MBOAT4 (11741988_at) / Fold change /veh MBOAT4 (11741988_at) / RFU 11764193_at / Fold change /veh 11764193_at / RFU TMEM53 (11763286_at) / Fold change /veh TMEM53 (11763286_at) / RFU MAGEB2 (11727129_at) / Fold change /veh MAGEB2 (11727129_at) / RFU TMEM200A (11744735_a_at) / Fold change /veh TMEM200A (11744735_a_at) / RFU CCDC152 (11751479_a_at) / Fold change /veh CCDC152 (11751479_a_at) / RFU FAM211A (11726209_a_at) / Fold change /veh FAM211A (11726209_a_at) / RFU RGS16 (11746705_a_at) / Fold change /veh RGS16 (11746705_a_at) / RFU VCAN (11755009_s_at) / Fold change /veh VCAN (11755009_s_at) / RFU RHOB (11743442_s_at) / Fold change /veh RHOB (11743442_s_at) / RFU RGS16 (11720943_a_at) / Fold change /veh RGS16 (11720943_a_at) / RFU RGS16 (11720944_at) / Fold change /veh RGS16 (11720944_at) / RFU, VPS4B / Fold change vs veh, VPS4B / RFU, CREB1 / Fold change vs veh, CREB1 / RFU, DNAJC13 / Fold change vs veh, DNAJC13 / RFU, GNAQ / Fold change vs veh, GNAQ / RFU, CDK5R1 / Fold change vs veh, CDK5R1 / RFU, ZRANB3 / Fold change vs veh, ZRANB3 / RFU, CUL4A / Fold change vs veh, CUL4A / RFU, CCNY / Fold change vs veh, CCNY / RFU, UFL1 / Fold change vs veh, UFL1 / RFU, COG3 / Fold change vs veh, COG3 / RFU, DIAPH2 / Fold change vs veh, DIAPH2 / RFU, SKA2 / Fold change vs veh, SKA2 / RFU, AFF3 / Fold change vs veh, AFF3 / RFU, LMF1 / Fold change vs veh, LMF1 / RFU, IPO11 / Fold change vs veh, IPO11 / RFU, DFFB / Fold change vs veh, DFFB / RFU, FOXP1 / Fold change vs veh, FOXP1 / RFU, CARD8 / Fold change vs veh, CARD8 / RFU, STRN3 / Fold change vs veh, STRN3 / RFU, ADK / Fold change vs veh, ADK / RFU, RASSF2 / Fold change vs veh, RASSF2 / RFU, WIPF1 / Fold change vs veh, WIPF1 / RFU, LARP1B / Fold change vs veh, LARP1B / RFU, RASA1 / Fold change vs veh, RASA1 / RFU, RB1 / Fold change vs veh, RB1 / RFU, PPFIA1 / Fold change vs veh, PPFIA1 / RFU, MAT2A / Fold change vs veh, MAT2A / RFU, CCT5 / Fold change vs veh, CCT5 / RFU, WDR92 / Fold change vs veh, WDR92 / RFU, CUX1 / Fold change vs veh, CUX1 / RFU, TTC7A / Fold change vs veh, TTC7A / RFU, TMEM135 / Fold change vs veh, TMEM135 / RFU, DEPTOR / Fold change vs veh, DEPTOR / RFU, CPM / Fold change vs veh, CPM / RFU, DNAJB6 / Fold change vs veh, DNAJB6 / RFU, CACNA2D3 / Fold change vs veh, CACNA2D3 / RFU, DTX4 / Fold change vs veh, DTX4 / RFU, TFCP2 / Fold change vs veh, TFCP2 / RFU, GMCL1 /// GMCL1P1 / Fold change vs veh, GMCL1 /// GMCL1P1 / RFU, AEBP2 / Fold change vs veh, AEBP2 / RFU, SNHG1 /// SNORD22 /// SNORD25 /// SNORD26 /// SNORD27 /// SNORD28 /// SNORD29 /// SNORD31 / Fold change vs veh, SNHG1 /// SNORD22 /// SNORD25 /// SNORD26 /// SNORD27 /// SNORD28 /// SNORD29 /// SNORD31 / Fold change (Aza/veh), C12orf56 (ProbeSet 11735607_a_at) / Fold change (ACY-1035/veh), C12orf56 (ProbeSet 11735607_a_at) / Fold change (Aza/veh), FGFR1OP (ProbeSet 11751329_s_at) / Fold change (ACY-1035/veh), FGFR1OP (ProbeSet 11751329_s_at) / Fold change (Aza/veh), VPS36 (ProbeSet 11739960_a_at) / Fold change (ACY-1035/veh), VPS36 (ProbeSet 11739960_a_at) / RFU SYPL1 (11715823_x_at) / Fold change /veh SYPL1 (11715823_x_at) / RFU IGFBP7 (11715501_s_at) / Fold change /veh IGFBP7 (11715501_s_at) / RFU REEP3 (11722064_at) / Fold change /veh REEP3 (11722064_at) / RFU IGLL1 (11728026_x_at) / Fold change /veh IGLL1 (11728026_x_at): dose or concentration left out as unconfirmed
Conditions: ProbeSet 11720154_at; LIST B

Structure (SMILES): Nc1ncn([C@@H]2O[C@H](CO)[C@@H](O)[C@H]2O)c(=O)n1 [azacitidine]
- RFU, NRIP1: 462.80 RFU
